# Like-named read-outs stand apart in the source and are kept apart here.
# Key:
# [1] = Stability of underivatized NAC and NACA thiol in plasma monitored directly by HILIC LC-MS/MS; format: in vitro ADME; conditions: human, room temperature, read-out: Half-lives for thiol disappearance
# Protocol: Half-lives for thiol disappearance were approximately 10 minutes at room temperature. Therefore, the inventors sought to stabilize NAC and NACA by derivatization. When plasma samples spiked with NAC and NACA were treated with TCEP and CMPI, the thiols were well recovered as the thioether derivatives.
# (§1) All stability testing in plasma (benchtop, freeze/thaw, and long-term storage) was performed using QC samples prepared in both CMPI-fortified plasma as well as unfortified plasma. In this manner, the stabilities of both the oxidized thiols (in disulfide forms) and the thioether derivatives were tested, since it was assumed that unknown samples would likely contain some of both species. The CMPI-thioethers were stable for at least 5 freeze/thaw cycles and for at least 20 hours at room temperature, as compared to less than 1 hour for the underivatized free thiols. The oxidized thiols were stable for at least 5 freeze/thaw cycles and for at least 22 hours, as evidenced by their full recovery as thioethers when assayed using the total method. Stability was also tested in extracts, whether held for first injection or reinjected. Extracts were stable for over 90 hours when refrigerated. Precision and accuracy was acceptable in lipemic and hemolyzed plasma.
# [2] = format: in vitro ADME; conditions: human
# Protocol: Calibration standards (CS) were prepared by mixing CMPI-fortified control matrix (95 parts) with the respective spiking solution (5 parts) to make 50.0, 40.0, 20.0, 5.00, 2.50, 0.500, 0.100, and 0.050 μg/mL NAC/NACA pools which were stable for at least 80 days when stored at −20° C. and for 284 days when stored at −80° C. It was critical that CS pools be spiked quickly after CMPI fortification of the plasma, with the lowest concentration pools being spiked first, within 5-10 minutes of mixing plasma with CMPI.
# Validation. The method was validated according to regulatory guidances. Three independently prepared analytical runs were executed to test the linearity of the calibration curve and the precision and accuracy of measuring validation samples (over 4 concentrations). Additional runs to evaluate recovery, matrix factor/suppression effects, reinjection reproducibility, and carryover were also performed. The selectivity of the method was evaluated over 10 lots of human plasma and the same lots were spiked at the mid QC level to verify inter-subject precision and accuracy. Freeze/thaw, benchtop, and autosampler stabilities were determined. Precision and accuracy data were also generated in lipemic and hemolyzed plasma lots, and stability in whole blood was tested. Long run lengths (up to 192 samples over 2 plates) were evaluated to determine whether the analytical system was reliable over twice the expected duty cycle.
# as §1
structure (smiles),measurement,setting,value
"CC(=O)N[C@@H](CS)C(=O)O [NAC, N-acetyl-L-cysteine]",half-life,[1],~10 min
same,Freeze/Thaw Stability,[2],"At least 5 cycles, at either −20 °C or −80° C., either analyte"
same,Benchtop Stability,[2]; 20 hours,"At least 20 hours at room temperature, either analyte"
same,Stability of calibration standard pools,[2]; 80 days,at least 80 days
same,Stability of calibration standard pools,[2]; 284 days,284 days
